In ChEMBL document CHEMBL1129920, “Cyclic homopentapeptides 2. Synthetic modifications of viomycin” (1997):
In brackets after ≈: the same amount, converted by molar mass.

Columns and labels:
Format in all cases: functional
Escherichia coli = test: In vitro inhibition of Escherichia coli growth.
Pasteurella multocida = test: In vitro inhibition of Pasteurella multocida growth.
Staphylococcus aureus = test: In vitro inhibition of MRSA growth.

MIC (Escherichia coli) [µg/mL]	MIC (Pasteurella multocida) [µg/mL]	MIC (Staphylococcus aureus) [µg/mL]	Compound
200 (≈ 257 µM)	200 (≈ 257 µM)		NCCC[C@H](N)CC(=O)NC1CNC(=O)[C@@H](C2CC(c3ccc(O)c(O)c3)N=C(N)N2)NC(=O)/C(=C/NC(N)=O)NC(=O)[C@@H](CO)NC(=O)[C@@H](CO)NC1=O (some centres undefined)
50 (≈ 51.2 µM)	6.25 (≈ 6.4 µM)		CC(=O)N(C1CC([C@H]2NC(=O)/C(=C/NC(=O)Nc3ccc(Cl)c(Cl)c3)NC(=O)[C@@H](CO)NC(=O)[C@@H](CO)NC(=O)C(NC(=O)C[C@@H](N)CCCN)CNC2=O)N=C(N)N1)[C@H](CS)C(=O)O (some centres undefined)
25 (≈ 28.1 µM)	3.12 (≈ 3.51 µM)		NCCC[C@H](N)CC(=O)NC1CNC(=O)[C@@H](C2CC(SCCN)NC(N)=N2)NC(=O)/C(=C/NC(=O)Nc2ccc(Cl)c(Cl)c2)NC(=O)[C@@H](CO)NC(=O)[C@@H](CO)NC1=O (some centres undefined)
50 (≈ 61.1 µM)	25 (≈ 30.5 µM)		NCCC[C@H](N)CC(=O)NC1CNC(=O)[C@@H](C2CC(NC(=O)OCc3ccccc3)N=C(N)N2)NC(=O)/C(=C/NC(N)=O)NC(=O)[C@@H](CO)NC(=O)[C@@H](CO)NC1=O (some centres undefined)
25 (≈ 28.2 µM)	3.13 (≈ 3.53 µM)	12.5 (≈ 14.1 µM)	NCCC[C@H](N)CC(=O)NC1CNC(=O)[C@@H](C2CC(NC(=O)OCc3cccc(Cl)c3Cl)N=C(N)N2)NC(=O)/C(=C/NC(N)=O)NC(=O)[C@@H](CO)NC(=O)[C@@H](CO)NC1=O (some centres undefined)
25 (≈ 26.4 µM)	3.12 (≈ 3.29 µM)		CSC[C@@H](NC1CC([C@H]2NC(=O)/C(=C/NC(=O)Nc3ccc(Cl)c(Cl)c3)NC(=O)[C@@H](CO)NC(=O)[C@@H](CO)NC(=O)C(NC(=O)C[C@@H](N)CCCN)CNC2=O)N=C(N)N1)C(=O)O (some centres undefined)
25 (≈ 28.6 µM)	12.5 (≈ 14.3 µM)		CC(C)(C)c1ccc(COC(=O)NC2CC([C@H]3NC(=O)/C(=C/NC(N)=O)NC(=O)[C@@H](CO)NC(=O)[C@@H](CO)NC(=O)C(NC(=O)C[C@@H](N)CCCN)CNC3=O)N=C(N)N2)cc1 (some centres undefined)
200 (≈ 238 µM)	200 (≈ 238 µM)		Cc1ccc(S(=O)(=O)NC2CC([C@H]3NC(=O)/C(=C/NC(N)=O)NC(=O)[C@@H](CO)NC(=O)[C@@H](CO)NC(=O)C(NC(=O)C[C@@H](N)CCCN)CNC3=O)N=C(N)N2)cc1 (some centres undefined)
> 200	> 200		COc1ccc(C2CC([C@H]3NC(=O)/C(=C/NC(N)=O)NC(=O)[C@@H](CO)NC(=O)[C@@H](CO)NC(=O)C(NC(=O)C[C@@H](N)CCCN)CNC3=O)N=C(N)N2)cc1OC (some centres undefined)
6.25 (≈ 6.14 µM)	6.25 (≈ 6.14 µM)	25 (≈ 24.6 µM)	NCCC[C@H](N)CC(=O)NC1CNC(=O)[C@@H](C2CC(NC(=O)Nc3ccc(Cl)c(Cl)c3)N=C(N)N2)NC(=O)/C(=C/NC(=O)Nc2ccc(Cl)c(Cl)c2)NC(=O)[C@@H](CO)NC(=O)[C@@H](CO)NC1=O (some centres undefined)
12.5 (≈ 13.5 µM)	12.5 (≈ 13.5 µM)		NCCC[C@H](N)CC(=O)NC1CNC(=O)[C@@H](C2CC(c3ccc(O)c(O)c3)N=C(N)N2)NC(=O)/C(=C/NC(=O)Nc2ccc(Cl)c(Cl)c2)NC(=O)[C@@H](CO)NC(=O)[C@@H](CO)NC1=O (some centres undefined)
6.25 (≈ 6.62 µM)	6.25 (≈ 6.62 µM)	12.5 (≈ 13.2 µM)	NCCC[C@H](N)CC(=O)NC1CNC(=O)[C@@H](C2CC(NC(=O)OCc3cccc(I)c3)N=C(N)N2)NC(=O)/C(=C/NC(N)=O)NC(=O)[C@@H](CO)NC(=O)[C@@H](CO)NC1=O (some centres undefined)
		25 (≈ 27.8 µM)	NCCC[C@H](N)CC(=O)NC1CNC(=O)[C@@H](C2CC(NC(=O)NCc3ccc(C4CCCCC4)cc3)N=C(N)N2)NC(=O)/C(=C/NC(N)=O)NC(=O)[C@@H](CO)NC(=O)[C@@H](CO)NC1=O (some centres undefined)
25 (≈ 28.2 µM)	6.25 (≈ 7.04 µM)	3.12 (≈ 3.51 µM)	NCCC[C@H](N)CC(=O)NC1CNC(=O)[C@@H](C2CC(NC(=O)OCc3ccc(Cl)c(Cl)c3)N=C(N)N2)NC(=O)/C(=C/NC(N)=O)NC(=O)[C@@H](CO)NC(=O)[C@@H](CO)NC1=O (some centres undefined)
200 (≈ 292 µM)	200 (≈ 292 µM)		NCCC[C@H](N)CC(=O)NC1CNC(=O)[C@@H](C2CC(O)N=C(N)N2)NC(=O)/C(=C/NC(N)=O)NC(=O)[C@@H](CO)NC(=O)[C@@H](CO)NC1=O (some centres undefined)
12.5 (≈ 14.1 µM)	3.13 (≈ 3.53 µM)		NCCC[C@H](N)CC(=O)NC1CNC(=O)[C@@H](C2CC(NC(=O)NCc3ccc(Cl)c(Cl)c3)N=C(N)N2)NC(=O)/C(=C/NC(N)=O)NC(=O)[C@@H](CO)NC(=O)[C@@H](CO)NC1=O (some centres undefined)
50 (≈ 60.2 µM)	3.12 (≈ 3.76 µM)		NCCC[C@H](N)CC(=O)NC1CNC(=O)[C@@H](C2CC(O)N=C(N)N2)NC(=O)/C(=C/NC(=O)Nc2ccc(Cl)c(Cl)c2)NC(=O)[C@@H](CO)NC(=O)[C@@H](CO)NC1=O (some centres undefined)
12.5 (≈ 13.2 µM)	3.13 (≈ 3.31 µM)	12.5 (≈ 13.2 µM)	NCCC[C@H](N)CC(=O)NC1CNC(=O)[C@@H](C2CC(NC(=O)OCc3ccc(I)cc3)N=C(N)N2)NC(=O)/C(=C/NC(N)=O)NC(=O)[C@@H](CO)NC(=O)[C@@H](CO)NC1=O (some centres undefined)
3.13 (≈ 3.03 µM)	6.25 (≈ 6.05 µM)	12.5 (≈ 12.1 µM)	NCCC[C@H](N)CC(=O)NC1CNC(=O)[C@@H](C2CC(NC(=O)OCc3ccc(Cl)cc3Cl)N=C(N)N2)NC(=O)/C(=C/NC(=O)Nc2ccc(Cl)c(Cl)c2)NC(=O)[C@@H](CO)NC(=O)[C@@H](CO)NC1=O (some centres undefined)
6.25 (≈ 7.16 µM)	1.56 (≈ 1.79 µM)	25 (≈ 28.6 µM)	NCCC[C@H](N)CC(=O)NC1CNC(=O)[C@@H](C2CC(NC(=O)Nc3ccc(Cl)c(Cl)c3)N=C(N)N2)NC(=O)/C(=C/NC(N)=O)NC(=O)[C@@H](CO)NC(=O)[C@@H](CO)NC1=O (some centres undefined)
		12.5 (≈ 13.9 µM)	NCCC[C@H](N)CC(=O)NC1CNC(=O)[C@@H](C2CC(NC(=O)NCc3cccc(C4CCCCC4)c3)N=C(N)N2)NC(=O)/C(=C/NC(N)=O)NC(=O)[C@@H](CO)NC(=O)[C@@H](CO)NC1=O (some centres undefined)
12.5 (≈ 13.1 µM)	12.5 (≈ 13.1 µM)		COc1ccc(C2CC([C@H]3NC(=O)/C(=C/NC(=O)Nc4ccc(Cl)c(Cl)c4)NC(=O)[C@@H](CO)NC(=O)[C@@H](CO)NC(=O)C(NC(=O)C[C@@H](N)CCCN)CNC3=O)N=C(N)N2)cc1OC (some centres undefined)
12.5 (≈ 14.3 µM)	3.13 (≈ 3.59 µM)		NCCC[C@H](N)CC(=O)NC1CNC(=O)[C@@H](C2CC(NC(=O)OCc3ccc(Cl)cc3F)N=C(N)N2)NC(=O)/C(=C/NC(N)=O)NC(=O)[C@@H](CO)NC(=O)[C@@H](CO)NC1=O (some centres undefined)
25 (≈ 26.8 µM)	3.12 (≈ 3.34 µM)		NCCC[C@H](N)CC(=O)NC1CNC(=O)[C@@H](C2CC(N[C@H](CS)C(=O)O)N=C(N)N2)NC(=O)/C(=C/NC(=O)Nc2ccc(Cl)c(Cl)c2)NC(=O)[C@@H](CO)NC(=O)[C@@H](CO)NC1=O (some centres undefined)

Compound	MIC (Escherichia coli) [µg/mL]	MIC (Pasteurella multocida) [µg/mL]	MIC (Staphylococcus aureus) [µg/mL]
CN[C@H](CC(C)C)C(=O)N[C@H]1C(=O)N[C@@H](CC(N)=O)C(=O)N[C@H]2C(=O)N[C@H]3C(=O)N[C@H](C(=O)N[C@H](C(=O)O)c4cc(O)cc(O)c4-c4cc3ccc4O)[C@H](O)c3ccc(c(Cl)c3)Oc3cc2cc(c3O[C@@H]2O[C@H](CO)[C@@H](O)[C@H](O)[C@H]2O[C@H]2C[C@](C)(N)[C@H](O)[C@H](C)O2)Oc2ccc(cc2Cl)[C@H]1O [VANCOMYCIN]			0.78 (≈ 0.538 µM)
